Assay results taken from patent publication US9446039B2, “Aminoheteroaryl compounds as MTH1 inhibitors” (CEMM—FORSCHUNGSZENTRUM FÜR MOLEKULARE MEDIZIN GMBH, priority 2012, dated 2016).

Tests used:
Type in all cases: binding
[1] = molecular target: T1, SW480 colon carcinoma cells lysate proteins (Homo sapiens, UniProt P53618); conditions: PreyGene COPB1
T1 sequence (P53618 1-953): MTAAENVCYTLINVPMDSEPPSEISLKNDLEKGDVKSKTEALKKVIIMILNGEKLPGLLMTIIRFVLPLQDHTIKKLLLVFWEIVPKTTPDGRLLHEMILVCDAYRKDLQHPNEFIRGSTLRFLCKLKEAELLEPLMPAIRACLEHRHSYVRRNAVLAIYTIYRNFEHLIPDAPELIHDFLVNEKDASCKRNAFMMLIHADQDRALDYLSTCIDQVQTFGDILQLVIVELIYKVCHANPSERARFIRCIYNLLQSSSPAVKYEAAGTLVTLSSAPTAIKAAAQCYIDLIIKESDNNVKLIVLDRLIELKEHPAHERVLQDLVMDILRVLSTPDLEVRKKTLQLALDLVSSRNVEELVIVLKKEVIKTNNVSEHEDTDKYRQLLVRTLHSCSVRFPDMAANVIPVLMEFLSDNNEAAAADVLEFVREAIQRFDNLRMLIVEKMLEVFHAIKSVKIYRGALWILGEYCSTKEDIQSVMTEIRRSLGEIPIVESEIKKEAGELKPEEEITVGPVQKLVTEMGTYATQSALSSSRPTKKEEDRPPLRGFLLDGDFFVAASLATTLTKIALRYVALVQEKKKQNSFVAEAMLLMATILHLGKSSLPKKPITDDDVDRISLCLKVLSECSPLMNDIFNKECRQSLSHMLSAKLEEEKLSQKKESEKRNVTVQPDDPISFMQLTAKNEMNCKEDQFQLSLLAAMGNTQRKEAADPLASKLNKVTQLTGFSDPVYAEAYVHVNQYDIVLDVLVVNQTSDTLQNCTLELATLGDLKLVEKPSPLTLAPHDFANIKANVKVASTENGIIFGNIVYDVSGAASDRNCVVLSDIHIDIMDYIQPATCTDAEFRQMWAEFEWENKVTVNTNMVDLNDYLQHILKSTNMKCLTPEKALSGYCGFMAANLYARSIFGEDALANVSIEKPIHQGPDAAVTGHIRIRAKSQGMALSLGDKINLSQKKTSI

[2] = molecular target: SW480 colon carcinoma cells lysate proteins (Homo sapiens, UniProt Q562R1); conditions: PreyGene ACTBL2; SW480 cells
[3] = molecular target: SW480 colon carcinoma cells lysate proteins (Homo sapiens, UniProt P06733); conditions: PreyGene ENO1
[4] = molecular target: SW480 colon carcinoma cells lysate proteins (Homo sapiens, UniProt Q13283); conditions: PreyGene G3BP1; SW480 cells
[5] = molecular target: T2, SW480 colon carcinoma cells lysate proteins (Homo sapiens, UniProt P51659); conditions: PreyGene HSD17B4
T2 sequence (P51659 1-736): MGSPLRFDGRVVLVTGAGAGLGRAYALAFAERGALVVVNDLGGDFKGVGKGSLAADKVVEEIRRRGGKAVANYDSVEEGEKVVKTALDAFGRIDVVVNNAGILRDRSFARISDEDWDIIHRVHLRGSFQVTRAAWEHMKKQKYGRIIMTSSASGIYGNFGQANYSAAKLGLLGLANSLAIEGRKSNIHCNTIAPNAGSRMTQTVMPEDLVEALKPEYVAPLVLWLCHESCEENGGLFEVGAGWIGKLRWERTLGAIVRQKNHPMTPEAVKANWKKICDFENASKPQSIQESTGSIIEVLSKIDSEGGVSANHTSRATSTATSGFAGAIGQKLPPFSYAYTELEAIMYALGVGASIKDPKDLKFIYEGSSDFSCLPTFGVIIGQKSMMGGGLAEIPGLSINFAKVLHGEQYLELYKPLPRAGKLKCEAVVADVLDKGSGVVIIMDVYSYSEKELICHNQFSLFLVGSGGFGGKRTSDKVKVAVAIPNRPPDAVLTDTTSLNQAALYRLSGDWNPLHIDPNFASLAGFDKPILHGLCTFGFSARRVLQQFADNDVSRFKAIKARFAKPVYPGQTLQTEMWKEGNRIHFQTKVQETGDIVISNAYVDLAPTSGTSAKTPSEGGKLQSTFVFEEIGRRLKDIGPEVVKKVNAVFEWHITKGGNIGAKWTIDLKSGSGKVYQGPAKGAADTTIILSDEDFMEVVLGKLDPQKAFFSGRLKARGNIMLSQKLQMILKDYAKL

[6] = molecular target: T3, SW480 colon carcinoma cells lysate proteins (Homo sapiens, UniProt P12081); conditions: PreyGene HARS
T3 sequence (P12081 1-509): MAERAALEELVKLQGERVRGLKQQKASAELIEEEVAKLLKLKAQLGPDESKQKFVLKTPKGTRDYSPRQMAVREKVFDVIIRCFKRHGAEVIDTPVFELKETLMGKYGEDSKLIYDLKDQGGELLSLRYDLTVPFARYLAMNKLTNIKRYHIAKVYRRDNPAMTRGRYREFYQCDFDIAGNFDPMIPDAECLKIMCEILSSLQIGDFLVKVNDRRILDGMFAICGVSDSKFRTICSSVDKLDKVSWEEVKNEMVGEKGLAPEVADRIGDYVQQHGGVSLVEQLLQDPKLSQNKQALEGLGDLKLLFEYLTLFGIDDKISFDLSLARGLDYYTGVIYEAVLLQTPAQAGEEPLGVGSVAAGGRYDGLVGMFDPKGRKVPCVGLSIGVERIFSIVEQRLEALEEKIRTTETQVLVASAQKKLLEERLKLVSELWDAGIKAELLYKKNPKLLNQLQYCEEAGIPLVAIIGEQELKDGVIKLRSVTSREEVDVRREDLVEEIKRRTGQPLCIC

Chain of SW480 colon carcinoma cells lysate proteins (Homo sapiens, UniProt Q13283) (Q13283 whole entry): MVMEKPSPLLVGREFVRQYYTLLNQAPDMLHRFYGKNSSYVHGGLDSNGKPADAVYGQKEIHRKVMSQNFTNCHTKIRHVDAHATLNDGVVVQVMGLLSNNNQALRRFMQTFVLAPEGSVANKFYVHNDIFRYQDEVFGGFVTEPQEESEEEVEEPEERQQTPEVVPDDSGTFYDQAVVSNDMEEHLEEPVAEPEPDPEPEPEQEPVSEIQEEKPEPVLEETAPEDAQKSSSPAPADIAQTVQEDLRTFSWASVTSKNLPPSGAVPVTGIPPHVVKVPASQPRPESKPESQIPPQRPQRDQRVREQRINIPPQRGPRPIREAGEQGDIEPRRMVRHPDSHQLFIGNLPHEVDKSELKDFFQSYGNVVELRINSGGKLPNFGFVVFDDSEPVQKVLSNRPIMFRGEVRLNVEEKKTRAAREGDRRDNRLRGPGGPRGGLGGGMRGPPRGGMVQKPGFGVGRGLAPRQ
Chain of SW480 colon carcinoma cells lysate proteins (Homo sapiens, UniProt Q562R1) (Q562R1 whole entry): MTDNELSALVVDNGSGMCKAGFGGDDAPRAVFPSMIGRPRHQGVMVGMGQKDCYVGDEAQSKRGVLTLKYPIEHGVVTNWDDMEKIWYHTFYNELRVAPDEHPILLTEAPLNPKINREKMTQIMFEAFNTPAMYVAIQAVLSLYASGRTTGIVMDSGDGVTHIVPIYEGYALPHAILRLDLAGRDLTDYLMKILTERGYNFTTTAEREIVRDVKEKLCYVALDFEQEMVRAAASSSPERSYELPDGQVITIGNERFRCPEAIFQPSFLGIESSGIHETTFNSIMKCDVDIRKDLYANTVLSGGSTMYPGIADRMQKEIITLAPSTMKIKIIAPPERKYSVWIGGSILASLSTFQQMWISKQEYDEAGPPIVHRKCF
Chain of SW480 colon carcinoma cells lysate proteins (Homo sapiens, UniProt P06733) (P06733 whole entry): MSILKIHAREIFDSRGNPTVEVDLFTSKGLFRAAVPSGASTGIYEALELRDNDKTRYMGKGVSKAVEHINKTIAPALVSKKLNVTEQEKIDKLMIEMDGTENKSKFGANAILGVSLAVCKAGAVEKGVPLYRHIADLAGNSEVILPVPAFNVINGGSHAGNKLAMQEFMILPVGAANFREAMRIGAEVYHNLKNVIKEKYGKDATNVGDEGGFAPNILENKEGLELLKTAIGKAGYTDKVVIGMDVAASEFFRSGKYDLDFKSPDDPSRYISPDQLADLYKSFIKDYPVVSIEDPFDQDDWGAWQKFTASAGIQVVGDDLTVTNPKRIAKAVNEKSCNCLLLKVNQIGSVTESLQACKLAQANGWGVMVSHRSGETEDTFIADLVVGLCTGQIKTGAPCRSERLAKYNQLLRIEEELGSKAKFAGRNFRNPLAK

C[C@H](Oc1cc(-c2cnn(C3CCNCC3)c2)cnc1N)c1c(Cl)ccc(F)c1Cl [(5)-crizotinib]
AvgP [1]: 0.2093 | SC.Exp. 1-1 [1]: 1 | SC.Exp. 1-2 [1]: 3 | SC.Exp. 2-1 [1]: 0 | SC.Exp. 2-2 [1]: 0 | Sum (SC.Exp.) [1]: 4 | AvgP [2]: 0 | SC.Exp. 1-1 [2]: 1 | SC.Exp. 1-2 [2]: 1 | SC.Exp. 2-1 [2]: 0 | SC.Exp. 2-2 [2]: 0 | SC.Exp. Sum [2]: 2 | AvgP [3]: 0.2209 | SC.Exp. 1-1 [3]: 29 | SC.Exp. 1-2 [3]: 28 | SC.Exp. 2-1 [3]: 7 | SC.Exp. 2-2 [3]: 7 | Sum (SC.Exp.) [3]: 71 | AvgP [4]: 0 | SC.Exp. 1-1 [4]: 2 | SC.Exp. 1-2 [4]: 2 | SC.Exp. 2-1 [4]: 3 | SC.Exp. 2-2 [4]: 2 | SC.Exp. Sum [4]: 9 | AvgP [5]: 0.3179 | SC.Exp. 1-1 [5]: 2 | SC.Exp. 1-2 [5]: 3 | SC.Exp. 2-1 [5]: 0 | SC.Exp. 2-2 [5]: 0 | Sum (SC.Exp.) [5]: 5 | AvgP [6]: 0.3676 | SC.Exp. 1-1 [6]: 3 | SC.Exp. 1-2 [6]: 3 | SC.Exp. 2-1 [6]: 0 | SC.Exp. 2-2 [6]: 0 | Sum (SC.Exp.) [6]: 6
